Assay results as given in paper PMC12313019, “Fibrotic lung ECM upregulates SDC4/integrin-αvβ1 interaction and the interfering peptide SDC4_87-131 and its derivative peptides alleviate pulmonary fibrosis” (Regenerative Biomaterials, 2025).
“Also recorded” adds a separate entry of the source.

Tests used:
fibroblast = assay: CCK-8 fibroblast viability/toxicity; type: cell-based, mouse; settings: CCK-8, 48 h, 10–1000 nM
Experimental: (§1) Decellularized lung ECM (dECM) was prepared as described in previous study. 2 × 10^5 cells/mL NIH3T3 cells (mouse […], purchased from the Stem Cell Bank of the Chinese Academy of Sciences, Shanghai, China) were seeded on the dECM slices attached to the bottom of the culture dish and cultured in DMEM medium containing 0.5% fetal bovine serum (Gibco, Waltham, MA, USA) at 37°C and 5% CO2.
(A) Schematic diagram of SDC487-131; (B) Effect of SDC487-131 and GRGDNP on fibroblast proliferation at 48 h was determined by CCK-8 method (n=3); (C) Effect of different concentration of SDC487-131 on fibroblast activation induced by d-PF for 48 h (n=5). Note: **p < 0.01 vs. PBS in d-Nor group; #p < 0.05 vs. PBS in d-PF group. d-Nor: dECM-Nor; d-PF: dECM-PF.
Figure S14. The viability of fibroblast after treated with peptides for 48 h was detected by CCK-8 assay.

NIH3T3 cells = assay: RT-PCR of fibroblast activation markers, TGF-β1 and inflammatory factors in dECM-stimulated fibroblast; type: cell-based, mouse
Experimental: as §1
Total RNA was extracted from cells or lung tissue (10 mg) using Trizol reagent, and mRNA was reverse transcribed into cDNA using HiScript® II QRT SuperMix for qPCR (Vazyme, #R223-01). Real-time fluorescence quantitative PCR (RT-PCR) was performed using Hieff® qPCR SYB Green Master Mix (YEASEN, #11201ES08) to obtain the Ct value. The 2^−ΔΔCt method was used to obtain the relative expression level of mRNA in each group. Primers (Table 1) were purchased from Sangon Biotech.

pan-integrins = assay: FN-coating cell adhesion assay (pan-integrins activation); type: cell-based, mouse; settings: 100 nM, n=5
Experimental: 10 μg/mL Fibronectin (Merck, #10838039001) was dissolved in serum-free DMEM medium and dropped into a 96-well plate, 50 μL per well. The plate was incubated at 4 °C overnight. After blocking with 3% bovine serum albumin at room temperature for 30 min, 4×10^4 cells were inoculated into each well. After incubation for 30 min, the cells were washed, fixed, and stained with crystal violet (5 mg/mL) for 30 min. Then after the crystal violet was dissolved, it was detected using an ELISA reader at 595 nm.

[1] = test system: integrin-αvβ1, FAK/AKT and PKCα/NF-κB pathways in NIH3T3 cells; assay: Western blot of signaling proteins in dECM-stimulated fibroblast; type: cell-based, mouse; settings: n=3
Experimental: as §1
(§2) 20 mg of lung tissue was extracted with RIPA lysis buffer (Roche International Ltd., Bermuda, USA), and the protein concentration was determined using a BCA protein detection kit (Roche). Protein samples were separated by 10% sodium dodecyl sulfate polyacrylamide gel (SDS-PAGE) electrophoresis and transferred to a PVDF membrane. After blocking, the PVDF membrane was incubated with primary antibodies for α-SMA, Integrin-αV, SDC4, Integrin-β1, p-Smad3, FAK, and p-FAK (CST, #19245, #4711, #12236S, #34971, #9520S, #3285S, and #3284S) at 4°C overnight, followed by incubation with secondary antibodies (CST, #7074P2), development with ECL reagent (SAB), and acquisition of images with a chemiluminescence imaging system (ChemiScope 5600).

[2] = test system: BLM-induced PF, C57BL/6J mice; assay: BLM-induced PF in mice: HE, Masson, hydroxyproline; type: in vivo, mouse
Experimental: C57BL/6J mice (male, 8-to 9-week old, 18–22 g, SPF grade) were purchased from Shanghai Slake Laboratory Animal Co., Ltd. [SCXK (Hu) 2022-0004, Shanghai, China]. […] The mice were housed in an SPF environment with 22–25°C, 46–65% humidity and 12 h/12 h light-dark alternation, with free access to water and food. This animal experiment was approved by the Experimental Animal Welfare Ethics Committee of Fujian Medical University (No. FJMU IACUC 2021-0465), and was carried out in accordance with the National Research Council's Guide for the Care and Use of Laboratory Animals.
(§3) After the mice were anesthetized (1% sodium pentobarbital 50 mg/kg was injected intraperitoneally), 150 μL of bleomycin (BLM, 5 mg/mL, BIO-000001) was inhaled into the lungs of the mice by tracheal inhalation instillation. One day later, the mice were randomly divided into model and drug treatment groups, and the mice in the control group were only subjected to saline inhalation.
Based on the dosage of SDC2 fragment peptide and our experimental results (Supplementary Figure S10A and B), the dosage schedule of SDC4_87-131 was set as follows: starting on the third day after BLM inhalation, 1 mg/kg, administered via trachea infusion once every three days. And Anti-SDC4(93-121) 8 mg/kg was administered on the third and tenth days (reference dosage).
Lung tissue samples were paraffin-embedded, then sliced and dewaxed, and HE and Masson staining were performed respectively. After dehydration and sealing, images were collected and analyzed using a microscope.
100 mg of lung tissue was accurately weighed and processed according to the instructions of the hydroxyproline assay kit (Nanjing Jiancheng, Nanjing, China), and the absorbance was measured at a wavelength of 550 nm. The data were expressed as micrograms (µg) of hydroxyproline per mg of dry lung tissue.

[3] = test system: integrin-αvβ1, FAK/AKT, Smad2/3 and PKCα/NF-κB in BLM lung tissue; assay: BLM-induced PF in mice: Western blot of lung tissue; type: in vivo, mouse; settings: n=3
Experimental: as §3, §2

BLM lung injury, mice = assay: BLM lung injury, subacute stage, HE staining; type: in vivo, mouse; settings: 300 μg/kg, i.h., qd from 24 h after BLM, to day 15
Experimental: as §3
(A) Flow chart of animal experiments. SDC487-131 (300 μg/kg, i.h., qd) was administered starting 24 h after BLM modeling, and the experiment ended on the 15th day; (B) The pathological changes at the subacute stage of BLM lung injury were observed by HE staining (scale bar = 1000 μm, 50μm). […] To achieve better results, we used intratracheal instillation of SDC487-131 (1mg/kg, q3d).

Ac-NHIPERAGSGSQVPTEPKKLEENEVIPKRISPVEESEDVSNKVSM-NH2 [SDC4_87-131]
toxicity to fibroblast (fibroblast): no significant toxicity to fibroblast | dECM-PF-induced fibroblast activation (NIH3T3 cells; 100 nM, 48 h): significantly inhibit dECM-PF-induced fibroblast activation | dECM-PF-induced fibroblast activation and TGF-β1 synthesis (NIH3T3 cells; SDC4_87-131 100 nM vs Anti-SDC4(93-121) 100 ng/mL): inhibited dECM-PF-induced fibroblast activation and TGF-β1 synthesis | pan-integrins activation (pan-integrins): could inhibit pan-integrins activation | expression of integrin-β1 ([1]; in vitro vs in vivo PF model): only reduced in the in vitro PF model | expression level of integrin-αv ([1]; in vitro, 100 nM, 48 h): significantly reduced the expression level of integrin-αv | FAK/AKT phosphorylation ([1]; in vitro, 100 nM): inhibit FAK/AKT phosphorylation activation in both in vitro and in vivo experiments | phosphorylation level of PKCα and nuclear content of NF-κB (p65) ([1]; in vitro, SDC4_87-131 100 nM, C8 20 nM, Anti-SDC4(93-121) 100 ng/mL): could downregulate | alveolar structural disorders and collagen deposition ([2]; SDC4_87-131 1 mg/kg ITD q3d, C8 10 mg/kg IP qd, Anti-SDC4(93-121) 8 mg/kg ITD day 3 and 10, to day 21): could alleviate alveolar structural disorders and collagen deposition | difference between treatments (HE, Masson, hydroxyproline) ([2]; SDC4_87-131, Anti-SDC4(93-121) and C8 compared): no significant difference | expression level of integrin-αv ([3]; 1 mg/kg ITD q3d): significantly reduced the expression level of integrin-αv | phosphorylation level of PKCα and nuclear content of NF-κB (p65) ([3]; SDC4_87-131 1 mg/kg, C8 10 mg/kg, Anti-SDC4(93-121) 8 mg/kg): could downregulate | FAK/AKT phosphorylation [3]: inhibit FAK/AKT phosphorylation activation in both in vitro and in vivo experiments | p-Smad2/3 effect vs C8 and Anti-SDC4 [3]: not significantly different from C8 and Anti-SDC4 | p-Smad2/3 protein levels [3]: reduced p-Smad2/3 protein levels | BLM lung injury, subacute stage (BLM lung injury, mice): can alleviate BLM lung injury in the subacute stage; also recorded: effective
